Assay results reported in patent US20240408096A1, “DOSING REGIMENS FOR ORAL ALK2 KINASE INHIBITORS” (BioCryst Pharmaceuticals, Inc., priority 2020, published 2024).

What was measured:
[1] = safety pharmacology studies (CNS, respiratory, cardiovascular); assay type: in vivo; settings: HEDs exceeding likely human daily clinical dose ranges (5 to 200 mg)
[2] = ECG / QTc after oral administration to dogs; assay type: in vivo, dog; settings: HEDs up to 667 mg based on a 60 kg subject
cytochrome P450 (CYP)1A2 = biological target: T1, cytochrome P450 (CYP)1A2 (Homo sapiens, UniProt P05177); assay: CYP inhibition in vitro; assay type: in vitro ADME
T1 sequence (P05177 1-516): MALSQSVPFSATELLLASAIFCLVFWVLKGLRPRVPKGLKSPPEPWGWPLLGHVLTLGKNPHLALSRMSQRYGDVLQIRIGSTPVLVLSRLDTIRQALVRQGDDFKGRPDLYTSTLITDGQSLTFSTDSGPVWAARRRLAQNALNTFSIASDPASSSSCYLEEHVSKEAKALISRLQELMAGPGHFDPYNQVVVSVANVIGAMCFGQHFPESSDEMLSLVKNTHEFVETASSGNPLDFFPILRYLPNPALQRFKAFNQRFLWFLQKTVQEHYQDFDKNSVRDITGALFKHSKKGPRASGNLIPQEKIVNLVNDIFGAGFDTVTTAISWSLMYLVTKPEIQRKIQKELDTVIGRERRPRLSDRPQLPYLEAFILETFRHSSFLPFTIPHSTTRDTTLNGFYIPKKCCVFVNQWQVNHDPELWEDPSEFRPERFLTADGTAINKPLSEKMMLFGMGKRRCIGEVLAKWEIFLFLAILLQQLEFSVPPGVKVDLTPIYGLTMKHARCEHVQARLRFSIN

CYP2A6 = biological target: T2, CYP2A6 (Homo sapiens, UniProt P11509); assay: CYP inhibition in vitro; assay type: in vitro ADME
T2 sequence (P11509 1-494): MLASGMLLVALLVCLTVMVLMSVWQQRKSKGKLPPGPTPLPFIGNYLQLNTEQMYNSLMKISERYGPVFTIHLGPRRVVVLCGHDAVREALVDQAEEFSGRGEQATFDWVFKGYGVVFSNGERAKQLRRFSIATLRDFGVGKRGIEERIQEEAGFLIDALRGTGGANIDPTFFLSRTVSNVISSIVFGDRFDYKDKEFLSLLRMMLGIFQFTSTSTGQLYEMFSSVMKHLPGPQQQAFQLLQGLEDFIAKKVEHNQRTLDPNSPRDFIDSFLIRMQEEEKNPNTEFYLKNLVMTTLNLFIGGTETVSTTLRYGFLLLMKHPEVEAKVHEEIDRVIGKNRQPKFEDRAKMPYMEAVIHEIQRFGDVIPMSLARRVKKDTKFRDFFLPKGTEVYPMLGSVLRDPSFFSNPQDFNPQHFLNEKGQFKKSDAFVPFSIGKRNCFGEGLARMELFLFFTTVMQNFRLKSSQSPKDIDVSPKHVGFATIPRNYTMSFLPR

CYP3A = assay: CYP inhibition in vitro; assay type: in vitro ADME
CYP2C9 = CYP2C9 (Homo sapiens, UniProt P11712); assay: CYP inhibition in vitro; assay type: in vitro ADME
Chain of CYP2C9 (P11712 whole entry): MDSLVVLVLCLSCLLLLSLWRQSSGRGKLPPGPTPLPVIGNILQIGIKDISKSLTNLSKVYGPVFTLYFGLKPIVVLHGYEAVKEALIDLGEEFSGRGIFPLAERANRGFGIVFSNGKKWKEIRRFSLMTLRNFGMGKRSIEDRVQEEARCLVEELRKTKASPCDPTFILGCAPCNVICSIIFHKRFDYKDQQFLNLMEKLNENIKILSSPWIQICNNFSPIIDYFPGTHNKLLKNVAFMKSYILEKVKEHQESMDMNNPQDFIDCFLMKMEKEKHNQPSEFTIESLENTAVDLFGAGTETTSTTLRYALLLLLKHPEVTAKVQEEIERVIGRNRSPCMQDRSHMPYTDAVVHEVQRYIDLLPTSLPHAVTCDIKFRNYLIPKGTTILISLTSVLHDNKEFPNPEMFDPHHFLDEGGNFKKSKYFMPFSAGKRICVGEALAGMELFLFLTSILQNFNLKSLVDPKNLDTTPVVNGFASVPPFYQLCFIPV

CYP2C19 = CYP2C19 (Homo sapiens, UniProt P33261); assay: CYP inhibition in vitro; assay type: in vitro ADME
Chain of CYP2C19 (P33261 whole entry): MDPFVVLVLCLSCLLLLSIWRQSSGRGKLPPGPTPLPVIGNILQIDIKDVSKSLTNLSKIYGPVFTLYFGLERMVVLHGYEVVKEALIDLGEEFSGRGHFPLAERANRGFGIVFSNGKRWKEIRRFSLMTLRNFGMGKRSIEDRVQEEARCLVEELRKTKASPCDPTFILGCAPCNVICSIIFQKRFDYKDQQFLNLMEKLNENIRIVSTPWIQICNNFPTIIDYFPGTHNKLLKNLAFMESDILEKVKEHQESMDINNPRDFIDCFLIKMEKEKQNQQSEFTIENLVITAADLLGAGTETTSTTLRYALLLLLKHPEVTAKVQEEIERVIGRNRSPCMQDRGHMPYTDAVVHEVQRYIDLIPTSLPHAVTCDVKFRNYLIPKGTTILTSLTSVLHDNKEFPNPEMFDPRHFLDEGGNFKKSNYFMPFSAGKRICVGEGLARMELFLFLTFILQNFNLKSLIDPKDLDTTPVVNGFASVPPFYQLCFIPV

[3] = in vitro genotoxicity: numerical chromosomal aberrations; assay type: cell-based

CYP1A2 inhibition (cytochrome P450 (CYP)1A2): not an inhibitor | CYP2A6 inhibition (CYP2A6): not an inhibitor | CYP3A inhibition (CYP3A): not an inhibitor | CYP2C9 inhibition (CYP2C9): is an inhibitor | CYP2C19 inhibition (CYP2C19): is an inhibitor
SMILES: COc1cc(-n2cnc(Nc3nc(N4CCC[C@H]4C(N)=O)nc4sccc34)c2)cc(OC)c1OC.O=C(O)CC(O)(CC(=O)O)C(=O)O [Compound A]
adverse central nervous system, respiratory, or cardiovascular issues [1]: no adverse central nervous system, respiratory, or cardiovascular issues | prolongation of corrected QT interval (QTc) or other ECG changes [2]: did not induce prolongation of corrected QT interval (QTc) | induction of numerical chromosomal aberrations [3]: negative
